Laboratory results as given in US20070110714A1 (priority 2003, published 2007).

What was measured:
pseudo type VSV-E1E2 [1] = type: cell-based
MDC = type: cell-based, human
VSV? G-G = type: cell-based
[2] = system: Monocyte-derived DCs from HCV-infected patients (HCV-DC); assay: MICA/B expression in stimulated DC by flow cytometry (HCV-DC); type: cell-based, human; details: HCV-DC stimulated 24 hours with cytokine at day 6
[3] = system: Monocyte-derived DCs from healthy donors (N-DC); assay: MICA/B expression in stimulated DC by flow cytometry (N-DC); type: cell-based, human; details: N-DC stimulated 24 hours with cytokine at day 6
NK cells [4] = assay: NK cell activation by co-culture with stimulated HCV-DC; type: cell-based, human; details: NK cells co-cultured with cytokine-stimulated HCV-DC
Method: (§1) NK cells were isolated from PBM of a healthy donor, and labeled with a concentrated antibody cocktail for NK cell, then, labeled with magnetic colloid (StemCell Technologies (Vancouver, BC, Canada)). 90% or more of the cells were CD56+CD3-lymphocytes. The concentrated NK cells were cultured with RPMI 1640 medium supplemented with 10% FCS and 10 U/mL penicillin/streptomycin, in a 24-well culture dish (5.0×10^5/well). DCs from a healthy individual (N-DC) or a HCV-infected individual (HCV-DC) were stimulated with IFNa (1000 U/mL) or IL-15 (50 ng/mL) for 24 hours, added to a well at a concentration of 1.0×10^5/mL, and co-cultured together with NK cells for 24 hours.
The cytolysis assay was carried out as described below. Target cells (K562) labeled with ^51Cr were incubated for 4 hours at various effecter/target ratios, in NK/DC co-culturing (with or without trans well system) or NK cell single culturing. After incubation, the supernatant was recovered, and ? counting was conducted. […] The cytolysis activity was calculated according to the following formula: Lysis %=(experimental value of release−natural release)×100/(maximum release−natural release)
Intracellular IFN? expression of an NK cell was assayed as described below. […] The stained cells were analyzed by flow cytometry. […]

NK cells [5] = assay: NK cell activation by co-culture with stimulated N-DC (K562 cytolytic assay, intracellular IFN? expression); type: cell-based, human
Method: as §1
(§2) The cytolysis assay was carried out as described below. Target cells (K562) labeled with ^51Cr were incubated for 4 hours at various effecter/target ratios, in NK/DC co-culturing (with or without trans well system) or NK cell single culturing. After incubation, the supernatant was recovered, and ? counting was conducted. Maximum release or natural release was defined as counting from a sample incubated with 5% Triton-X or a sample incubated with only the medium, respectively. The cytolysis activity was calculated according to the following formula: Lysis %=(experimental value of release−natural release)×100/(maximum release−natural release)
(§3) Intracellular IFN? expression of an NK cell was assayed as described below. NK cells cultured for 24 hours together with DC as described above were incubated together with 10 ng/ml PMA and 1 μmol/L ionomycin (Sigma Aldrich). Next, after incubation at 37° C. for 4 hours in the presence of 1 μl/mL GolgiPlug (registered trademark)(BD-Phanmngen), NK cells were stained at 4° C. for 30 minutes with a PE-labeled CD56 monoclonal antibody. The cells were treated with Cytofix/Cytoperm (registered trademark) buffering solution (BD-Pharmingen) at room temperature for 15 minutes, then, stained with a FITC-labeled-anti-IFN? monoclonal antibody (mouse IgG1). The stained cells were analyzed by flow cytometry. […]

N-DC = assay: Cytokine production of stimulated N-DC, ELISA of culture supernatant; type: cell-based, human; details: N-DC cultured 24 hours with 50 ng/ml IL-15
Method: (§4) N-DC and HCV-DC were stimulated with IFNa (1000 U/mL) for 24 hours(n=5 for each group). IL-15, IL-12p70, TNFa and IL-1β in each culture supernatant were measured by solid phase sandwich ELISA using a couple of specific monoclonal antibodies and a recombinant cytokine standard substance (IFNa/β, IL-12p70, TNFa and IL-1β, Endogen, Wobum, Mass.; IL-15, BD-Pharmingen). The limit thresholds of detection of these ELISA systems are as described below: IL-15, 3.7 pg/mL; IFNa/β, 17.5 pg/mL; IL-12p70, TNFa and IL-1β, 8.8 pg/mL.
(§5) N-DC and HCV-DC were cultured for 24 hours together with 50 ng/ml IL-15 in the presence or absence of an anti-IFNa/βR neutralization antibody (30 μg/mL)(n=5 for each group). IFNa and IFNβ in each culture supernatant were measured by ELISA.

HCV-DC = assay: Cytokine production of stimulated HCV-DC, ELISA of culture supernatant; type: cell-based, human; details: HCV-DC cultured 24 hours with 50 ng/ml IL-15
Method: as §4, §5

NK cells [6] = assay: NK cells cultured with IL-15 alone (K562 cytolytic activity and IFN? production); type: cell-based, human; details: newly isolated NK cells cultured 24 hours with 50 ng/mL IL-15, no DC
Method: as §2, §3

pseudo type VSV-E1E2 [7] = type: cell-based; remark: listed apart in the source
HCV = type: cell-based
[8] = NK cells co-cultured 24 hours with cytokine-stimulated N-DC

Row | Molecule | sensitivity against VSV? G-G (percentage of GFP+ cells) (VSV? G-G) | percentage of VSV-E1E2-containing GFP+ cells (pseudo type VSV-E1E2 [1]) | MICA/B expression [2] | MICA/B expression [3] | further results
1 | O=C(O)CN(CCN(CC(=O)O)CC(=O)O)CC(=O)O [EDTA] | – | – | – | – | percentage of GFP+ cell having VSV-E1E2 (pseudo type VSV-E1E2 [1]): did not decrease
2 | O=C[C@H](O)[C@@H](O)[C@@H](O)[C@H](O)CO [galactose] | – | – | – | – | percentage of GFP+ cell having VSV-E1E2 (pseudo type VSV-E1E2 [1]): did not exert an influence
3 | CpG ODN 2006 | not influenced | decreases significantly | – | – | expression of CD83 and CD86 (MDC): up-regulated
4 | GM-CSF: recombinant human GM-CSF (PeproTech) | – | – | – | – | proportion of GFP+ cells (median) (pseudo type VSV-E1E2 [1]): 1.5%
5 | IL-12: cytokine (R&D Systems) | – | – | did not induce MICA/B expression | did not induce MICA/B expression | –
6 | IL-15: cytokine (R&D Systems); claimed active ingredient, T cell growth factor stimulating dendritic cells | – | – | could apparently induce MICA/B | could apparently induce MICA/B | activation of NK cells (NK cells [4]): activated NK cells; IFN? production of NK cells (NK cells [5]; [8]): increase; cytolytic activity for K562 cells (NK cells [5]; [8]): increase; K562 cytolytic activity (NK cells [5]; trans well: NK cells and IL-15 (50 ng/mL)-stimulated N-DC separated by 0.4 μm membrane, 24 hours): did not show increase in cylolytic ability; production of IFNa and IFNβ (N-DC): produced; production of IFNa and IFNβ (HCV-DC): produced; activation of NK cells (K562 cytolytic activity and IFN? production) (NK cells [6]): could not activate NK cells
7 | IL-18: cytokine (R&D Systems) | – | – | did not induce MICA/B expression | did not induce MICA/B expression | –
8 | TNFa | decreased | decreased | did not induce MICA/B expression | did not induce MICA/B expression | –
9 | mannan | – | – | – | – | infection of VSV-E1E2 in HepG2 cells (pseudo type VSV-E1E2 [7]): did not inhibit; disturbing effect on infection of MDC with true HCV (HCV): confirmed; percentage of GFP+ cell having VSV-E1E2 (pseudo type VSV-E1E2 [1]): decreased in dose-dependent manner
10 | polyI:C | decreased | decreased | – | – | –
11 | IL-4: recombinant human IL-4 (PeproTech) (protein, UniProt P05112 25-153, looked up) Interleukin-4: HKCDITLQEIIKTLNSLTEQKTLCTELTVTDIFAASKNTTEKETFCRAATVLRQFYSHHEKDTRCLGATAQQFHRHKQLIRFLKRLDRNLWGLAGLNSCPVKEANQSTLENFLERLKTIMREKYSKCSS | not influenced | decreases significantly | – | – | –
